# Reference: publication PMC7311426, “An amphipathic peptide with antibiotic activity against multidrug-resistant Gram-negative bacteria” (Nature Communications, 2020)
# Like-named read-outs stand apart in the source and are kept apart here.
# How the values were obtained:
# Experiment in all cases: microbe, parasite or virus in culture
# A. baumannii = conditions: Acinetobacter baumannii, ATCC19636, read-out: BMD MIC, A. baumannii ATCC 19636 type strain; MHB; mode of 6 replicates
# Outline: (§1)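 Broth microdilution in MHB, 2-fold 12-point series from 128 or 64 down to 0.06 or 0.03 μg mL^−1, 5 × 10^5 CFU mL^−1. Extra runs in CAMHB per CLSI and in MHB with 1% agarose; n ≥ 6.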
# K. pneumoniae = conditions: Klebsiella pneumoniae
# Outline: as §1
# P. aeruginosa = conditions: Pseudomonas aeruginosa, mode of 6 replicates
# Outline: as §1
# S. aureus = test system: S. aureus
# Outline: as §1
# E. coli = conditions: Escherichia coli
# Outline: as §1
# S. enterica Typhi = conditions: Salmonella enterica, ATCC14028 / TYPHI, read-out: BMD MIC
# Outline: as §1
# [1] = BAA2146, read-out: BMD MIC, K. pneumoniae BAA-2146, MDR, ESBL, NDM-1 pos, MHB, mode of 6 replicates
SMILES,MIC (A. baumannii),"MIC (K. pneumoniae; ATCC13883, read-out: BMD MIC)","MIC (K. pneumoniae; ATCC700603, read-out: BMD MIC, K. pneumoniae ATCC 700603 (K6), MDR, OXA-2/SHV-18, MHB, mode of 6 replicates)",MIC (K. pneumoniae; [1]),"MIC (P. aeruginosa; read-out: BMD MIC, P. aeruginosa FADDI-070, MDR, PmxR, MHB/CAMHB)","BMD MIC (S. aureus; S. aureus ATCC 25923 MSSA, CAMHB, mode of 6 replicates)","MIC (S. aureus; Staphylococcus aureus, ATCC25923 / MSSA, read-out: BMD MIC)","MIC (E. coli; ATCC25922, read-out: BMD MIC, E. coli ATCC 25922 FDA control strain, CAMHB, mode of 6 replicates)","MIC (E. coli; ATCC25922, read-out: BMD MIC, E. coli ATCC 25922 FDA control strain, MHB, mode of 6 independent biological replicates)","MIC (E. coli; ATCC700926 / MG1655, read-out: BMD MIC)","MIC (E. coli; ATCC700928, read-out: BMD MIC, E. coli ATCC 700928 CFT073 UPEC, CAMHB, mode of 6 replicates)",MIC (E. coli; read-out: BMD MIC),"MIC (K. pneumoniae; ATCC13883, read-out: BMD MIC, K. pneumoniae ATCC 13883 type strain (polymyxin/colistin heteroresistant), MHB, mode of 6 replicates)","MIC (P. aeruginosa; ATCC27853, read-out: BMD MIC, P. aeruginosa ATCC 27853 control strain, CAMHB)","MIC (P. aeruginosa; ATCC27853, read-out: BMD MIC, P. aeruginosa ATCC 27853 control strain, MHB)",MIC (S. enterica Typhi)
COc1cc(Cc2cnc(N)nc2N)cc(OC)c1OC [Trimethoprim],16 µg/mL,1 µg/mL,4 µg/mL,> 64 µg/mL,64 µg/mL,2 µg/mL,2 µg/mL,,,,,,,,,
"O=C(O)c1cn(C2CC2)c2cc(N3CCNCC3)c(F)cc2c1=O [Ciprofloxacin, ciprofloxacin]",,,,> 64 µg/mL,,,,≤ 0.25 µg/mL,≤ 0.25 µg/mL,≤ 0.25 µg/mL,≤ 0.25 µg/mL,≤ 0.25 µg/mL,≤ 0.25 µg/mL,≤ 0.25 µg/mL,0.5 µg/mL,0.004 µg/mL
